# Laboratory results published in ChEMBL document CHEMBL6178018, “Design of an Oral STING Agonist through Intramolecular Hydrogen Bond Ring Mimicking to Achieve Complete Tumor Regression” (J Med Chem, 2025).
# The source made the active and inactive calls. No cut-off for these calls is given here.
# Tests used:
# [1] = target: T1, Stimulator of interferon genes protein (Homo sapiens, UniProt Q86WV6); assay: Agonist activity at human STING HAQ variant in human THP1-Blue ISG cells assessed as fold change in stimulation activity measured after 24 hrs incubation by QUANTI-Blue based microplate reader; type: cell-based
# [2] = target: T1, Stimulator of interferon genes protein; assay: Agonist activity at STING R232 mutant (unknown origin) expressed in human THP1-Dual cells assessed as fold change in stimulation activity measured after 24 hrs incubation by QUANTI-Luc4 based microplate reader; type: cell-based
# [3] = target: T2, Stimulator of interferon genes protein (Mus musculus, UniProt Q3TBT3); assay: Agonist activity at mouse STING expressed in human THP1-Dual cells assessed as fold change in stimulation activity measured after 24 hrs incubation by QUANTI-Luc4 based microplate reader; type: cell-based
# T2 sequence (Q3TBT3 whole entry): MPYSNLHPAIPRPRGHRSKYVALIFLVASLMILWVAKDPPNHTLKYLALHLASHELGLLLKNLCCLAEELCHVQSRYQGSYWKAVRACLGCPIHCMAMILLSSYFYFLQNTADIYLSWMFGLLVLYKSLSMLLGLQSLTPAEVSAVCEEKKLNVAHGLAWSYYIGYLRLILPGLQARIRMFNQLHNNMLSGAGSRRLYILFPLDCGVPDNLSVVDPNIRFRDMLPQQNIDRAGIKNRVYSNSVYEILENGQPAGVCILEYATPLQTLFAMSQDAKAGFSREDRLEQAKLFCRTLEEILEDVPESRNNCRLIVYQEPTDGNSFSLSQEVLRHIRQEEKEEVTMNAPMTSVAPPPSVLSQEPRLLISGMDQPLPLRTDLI
# THP-1 [4] = assay: Induction of interferon response in STING knock out human THP-1 cells assessed as fold change in stimulation activity at 13 to 25 uM measured after 24 hrs incubation by QUANTI-Luc4 based microplate reader; type: functional, cell-based; conditions: dose 13-25 µM
# THP-1 [5] = assay: Induction of interferon secretion in human THP-1 cells assessed as IFN-beta level at 13 uM measured after 24 hrs by ELISA; type: functional, cell-based
# THP1-Blue ISG = assay: Induction of STING phosphorylation in human THP1-Blue ISG cells at 13 to 50 uM measured after 3 hrs by Western blot analysis; type: cell-based; conditions: filed as agonist, dose 13-50 µM
# [6] = target: T3, Interferon regulatory factor 3 (Homo sapiens) (UniProt Q14653); assay: Induction of IRF3 phosphorylation in human THP1-Blue ISG cells at 13 to 50 uM measured after 3 hrs by Western blot analysis; type: cell-based; conditions: filed as agonist, dose 13-50 µM
# T3 sequence (whole entry): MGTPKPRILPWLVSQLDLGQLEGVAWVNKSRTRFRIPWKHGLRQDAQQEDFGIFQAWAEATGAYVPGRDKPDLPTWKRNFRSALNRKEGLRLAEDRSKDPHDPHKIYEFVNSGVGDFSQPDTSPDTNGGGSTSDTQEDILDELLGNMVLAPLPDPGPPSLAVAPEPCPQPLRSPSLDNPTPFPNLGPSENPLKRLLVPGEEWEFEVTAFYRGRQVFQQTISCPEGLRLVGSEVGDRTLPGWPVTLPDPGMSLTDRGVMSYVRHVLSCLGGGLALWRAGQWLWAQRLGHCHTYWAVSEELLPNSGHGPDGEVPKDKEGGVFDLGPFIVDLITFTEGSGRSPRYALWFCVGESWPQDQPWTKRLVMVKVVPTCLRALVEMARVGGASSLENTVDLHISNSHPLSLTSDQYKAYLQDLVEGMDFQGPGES
# MC-38 [7] = assay: In vivo antitumor activity against mouse MC-38 cells inoculated in C57BL/6 mouse assessed as complete tumor regression (CR) at 60 mg/kg, po Q3D co-administered with anti-PD1 measured for 15 to 20 days; type: functional; conditions: time 15-20 day
# MC-38 [8] = assay: In vivo antitumor activity against mouse MC-38 cells inoculated in C57BL/6 mouse assessed as increase in moue survival time at 60 mg/kg, po Q3D co-administered with anti-PD1 measured for 15 to 20 days; type: functional, organism-based; conditions: time 15-20 day
# MC-38 [9] = assay: In vivo antitumor activity against mouse MC-38 cells inoculated in C57BL/6 mouse assessed as complete tumor regression (CR) at 60 mg/kg, po Q3D measured for 15 to 20 days; type: functional, organism-based; conditions: time 15-20 day
# MC-38 [10] = assay: In vivo antitumor activity against mouse MC-38 cells inoculated in C57BL/6 mouse assessed as as increase in moue survival time at 60 mg/kg, po Q3D measured for 15 to 20 days; type: functional, organism-based; conditions: time 15-20 day
# MC-38 [11] = assay: In vivo antitumor activity against mouse MC-38 cells inoculated in C57BL/6 mouse assessed as long-term immunological memory by measuring tumor recurrence at 60 mg/kg, po Q3D measured for 15 to 20 days followed by cured rechallenged with MC-38 cells after 84 days of first dose and measured for additional 74 days (total 157 days observation); type: functional, organism-based; conditions: time 157.0 day
# MC-38 [12] = assay: In vivo antitumor activity against mouse MC-38 cells inoculated in C57BL/6 mouse assessed as complete tumor regression (CR) at 60 mg/kg, po two doses measured for 15 to 20 days relative to total number of mouse; type: functional; conditions: time 15-20 day
# MC-38 [13] = assay: In vivo antitumor activity against mouse MC-38 cells inoculated in C57BL/6 mouse assessed as increase in IFN-gamma level in tumor at 60 mg/kg, po Q3D co-administered with anti-PD1 measured for 15 to 20 days; type: functional, organism-based; conditions: time 15-20 day
# MC-38 [14] = assay: In vivo antitumor activity against mouse MC-38 cells inoculated in C57BL/6 mouse assessed as increase in IL-6 level in tumor at 60 mg/kg, po Q3D co-administered with anti-PD1 measured for 15 to 20 days; type: functional, organism-based; conditions: time 15-20 day
# MC-38 [15] = assay: In vivo antitumor activity against mouse MC-38 cells inoculated in C57BL/6 mouse assessed as increase in CXCL10 level in tumor at 60 mg/kg, po Q3D co-administered with anti-PD1 measured for 15 to 20 days; type: functional, organism-based; conditions: time 15-20 day
# MC-38 [16] = assay: In vivo antitumor activity against mouse MC-38 cells inoculated in C57BL/6 mouse assessed as increase in IFN-gamma level in serum at 60 mg/kg, po Q3D co-administered with anti-PD1 measured for 15 to 20 days; type: functional, organism-based; conditions: time 15-20 day
# MC-38 [17] = assay: In vivo antitumor activity against mouse MC-38 cells inoculated in C57BL/6 mouse assessed as increase in IL-6 level in serum at 60 mg/kg, po Q3D co-administered with anti-PD1 measured for 15 to 20 days; type: functional, organism-based; conditions: time 15-20 day
# MC-38 [18] = assay: In vivo antitumor activity against mouse MC-38 cells inoculated in C57BL/6 mouse assessed as increase in CXCL10 level in serum at 60 mg/kg, po Q3D co-administered with anti-PD1 measured for 15 to 20 days; type: functional, organism-based; conditions: time 15-20 day
# [19] = Metabolic stability in mouse liver microsomes assessed as half life at 10 uM measured up to 60 mins by LC-MS/MS analysis; type: ADME, Microsome
# [20] = Metabolic stability in human liver microsomes assessed as half life at 10 uM measured up to 60 mins by LC-MS/MS analysis; type: ADME, Microsome
# [21] = Stability of the compound in human plasma assessed as half life by LC-MS/MS analysis; type: ADME, cell-free
# [22] = Stability of the compound in mouse plasma assessed as half life by LC-MS/MS analysis; type: ADME, cell-free
# [23] = Chemical stability of the compound in MeOH/H2O solvent assessed as half life by LC-MS/MS analysis; type: physicochemical
# [24] = Cmax in mouse at 10 mg/kg, po by LC-MS/MS analysis; type: ADME, organism-based; conditions: in vivo
# [25] = Half life in mouse at 10 mg/kg, po by LC-MS/MS analysis; type: ADME, organism-based; conditions: in vivo
# [26] = Clearance in mouse at 10 mg/kg, po by LC-MS/MS analysis; type: ADME, organism-based; conditions: in vivo
# [27] = AUC in mouse at 10 mg/kg, po by LC-MS/MS analysis; type: ADME, organism-based; conditions: in vivo
# [28] = Oral bioavailability in mouse at 10 mg/kg by LC-MS/MS analysis; type: ADME, organism-based; conditions: in vivo
# [29] = Cmax in mouse at 5 mg/kg, iv by LC-MS/MS analysis; type: ADME, organism-based; conditions: in vivo
# [30] = Half life in mouse at 5 mg/kg, iv by LC-MS/MS analysis; type: ADME, organism-based; conditions: in vivo
# [31] = Clearance in mouse at 5 mg/kg, iv by LC-MS/MS analysis; type: ADME, organism-based; conditions: in vivo
# [32] = AUC in mouse at 5 mg/kg, iv by LC-MS/MS analysis; type: ADME, organism-based; conditions: in vivo
# T1 sequence (Q86WV6 whole entry, looked up, change not shown): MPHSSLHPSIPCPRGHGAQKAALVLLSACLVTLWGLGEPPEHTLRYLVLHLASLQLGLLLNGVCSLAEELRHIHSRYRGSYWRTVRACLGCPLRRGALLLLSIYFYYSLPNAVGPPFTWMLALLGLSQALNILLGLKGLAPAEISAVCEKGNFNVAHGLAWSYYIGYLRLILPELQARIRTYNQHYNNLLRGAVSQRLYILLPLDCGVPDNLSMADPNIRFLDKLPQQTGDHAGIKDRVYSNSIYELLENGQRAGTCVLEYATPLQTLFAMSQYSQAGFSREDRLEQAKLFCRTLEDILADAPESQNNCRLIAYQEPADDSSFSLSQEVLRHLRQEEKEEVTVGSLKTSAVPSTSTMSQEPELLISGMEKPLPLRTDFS
compound,measurement,setting,value
CC[C@H](CNC(=O)c1[se]c2cc(OC)c(OC)cc2c1F)C(=O)O,EC50,[1],3.3 µM
same,EC50,[2],9 µM
same,EC50,[3],9.3 µM
same,Activity,THP-1 [4],inactive
same,Activity,THP-1 [5],Active
same,Activity,THP1-Blue ISG,Active
same,Activity,[6],Active
same,Activity,MC-38 [7],Active; Compound Effect Significantly Exceeded Than Its Parent Compound Zsa-52 (Cr = 60%)
same,Activity,MC-38 [8],Active
same,Activity,MC-38 [9],Active
same,Activity,MC-38 [10],Active
same,Activity,MC-38 [11],Active
same,Activity,MC-38 [12],60%
same,Activity,MC-38 [13],Active
same,Activity,MC-38 [14],Active
same,Activity,MC-38 [15],Active
same,Activity,MC-38 [16],Active
same,Activity,MC-38 [17],Active
same,Activity,MC-38 [18],Active
same,half-life at 10 µM,[19],> 1 h
same,half-life at 10 µM,[20],> 1 h
same,half-life,[21],> 1 h
same,half-life,[22],> 1 h
same,half-life,[23],0.8 h
same,Cmax,[24],20600 ng/mL
same,half-life,[25],1.1 h
same,CL/F,[26],6.94 mL/min/kg
same,AUC,[27],23800 ng·h/mL
same,bioavailability,[28],58%
same,Cmax,[29],48400 ng/mL
same,half-life,[30],0.6 h
same,clearance,[31],4.04 mL/min/kg
same,AUC,[32],20600 ng·h/mL
